From US20240024514A1, “RECOMBINANT ADENO-ASSOCIATED VIRUSES WITH ENHANCED LIVER TROPISM AND USES THEREOF” (priority 2020, published 2024)

How the values were obtained:
HBeAg = HBeAg in HBV transgenic mice; type: in vivo; details: blood, ETV 3.2 mg/kg, rAAV 3 × 10^10 vg/animal
Procedure: (§1) scAAV2/X-H1-shRNA-intron2 and scAAV2/8-H1-shRNA-intron2 were administered to HBV transgenic mice (Beijing Vitalstar Biotechnology Co., Ltd, B6-Tg HBV/Vst; C57BL/6-HBV) via intravenous injection, respectively. Epivir® (Lamivudine) and Baraclude® (Entecavir) were used as controls. Blood was collected on days 0, 7, 14, 21, 28, 35, 56, 84, 112, 140, 168, 196, 224, and 252, centrifuged, and assayed for the level of HBsAg, HBeAg, and HBV DNA.

HBsAg = HBsAg in HBV transgenic mice; type: in vivo; details: blood, LAM 150 mg/kg, ETV 3.2 mg/kg, rAAV 3 × 10^10 vg/animal
Procedure: as §1

HBV DNA [1] = assay: HBV DNA in HBV transgenic mice; type: in vivo; details: blood, LAM 150 mg/kg, ETV 3.2 mg/kg, rAAV 3 × 10^10 vg/animal
Procedure: as §1

HBV HBsAg = assay: suppression of HBV HBsAg in HepG2.2.15 cells; type: cell-based, Hepatitis B virus; details: 1 ug/mL
Procedure: (§2) scAAV2/X-H1-shRNA-intron2 and scAAV2/8-H1-shRNA-intron2 were used to infect HepG2.2.15 cells with increased Multiplicity of Infection (MOI). The levels of HBV HBeAg, HBV HBsAg, and HBV DNA in samples were measured by HBV HBeAg diagnostic kit (Beijing Wantai Biopharmaceuticals Ltd. Co.), HBV HBsAg diagnostic kit (Beijing Wantai Biopharmaceuticals Ltd. Co.), and HBV nucleotide quantification kit (QIAGEN), respectively. 1 ug/mL of Lamivudine (LAM) was used as a positive control in the experiments. scAAV2/X-H1-NC-intron2 (X-NC) and scAAV2/8-H1-NC-intron2 (8-NC) were used as negative controls. […] The sample was collected every day for nine days and analyzed for the levels of HBeAg, HbsAg, and HBV DNA.

HBV DNA [2] = assay: suppression of HBV DNA in HepG2.2.15 cells; type: cell-based, Hepatitis B virus; details: 1 ug/mL
Procedure: as §2

HBV HBeAg = assay: suppression of HBV HBeAg in HepG2.2.15 cells; type: cell-based, Hepatitis B virus; details: 1 ug/mL
Procedure: as §2

SMILES: C=C1[C@H](CO)[C@@H](O)C[C@@H]1n1cnc2c(=O)[nH]c(N)nc21 [ETV, Entecavir]
- HBeAg Levels (HBeAg; D0): 130.7 PEIU/mL
- HBeAg Levels (HBeAg; D7): 138.6 PEIU/mL
- HBeAg Levels (HBeAg; D14): 92.1 PEIU/mL
- HBeAg Levels (HBeAg; D21): 66.5 PEIU/mL
- HBeAg Levels (HBeAg; D28): 78.3 PEIU/mL
- HBeAg Levels (HBeAg; D35): 48.2 PEIU/mL
- HBeAg Levels (HBeAg; D56): 131.4 PEIU/mL
- HBeAg Levels (HBeAg; D84): 105.1 PEIU/mL
- HBeAg Levels (HBeAg; D112): 133.8 PEIU/mL
- HBeAg Levels (HBeAg; D140): 178.5 PEIU/mL
- HBeAg Levels (HBeAg; D168): 125.9 PEIU/mL
- HBeAg Levels (HBeAg; D196): 150.5 PEIU/mL
- HBeAg Levels (HBeAg; D224): 123.5 PEIU/mL
- HBeAg Levels (HBeAg; D252): 155.1 PEIU/mL
- HBsAg Levels (HBsAg; D0): 1
- HBsAg Levels (HBsAg; D7): 1.52
- HBsAg Levels (HBsAg; D14): 1.51
- HBsAg Levels (HBsAg; D21): 1.08
- HBsAg Levels (HBsAg; D28): 1.55
- HBsAg Levels (HBsAg; D35): 1.8
- HBsAg Levels (HBsAg; D56): 1.21
- HBsAg Levels (HBsAg; D84): 1.18
- HBsAg Levels (HBsAg; D112): 0.43
- HBsAg Levels (HBsAg; D140): 1.04
- HBsAg Levels (HBsAg; D168): 1.23
- HBsAg Levels (HBsAg; D196): 1.48
- HBsAg Levels (HBsAg; D224): 1.16
- HBsAg Levels (HBsAg; D252): 0.72
- HBV DNA Levels (HBV DNA [1]; D0): 1
- HBV DNA Levels (HBV DNA [1]; D7): 5.7
- HBV DNA Levels (HBV DNA [1]; D14): 8.68
- HBV DNA Levels (HBV DNA [1]; D21): 0.66
- HBV DNA Levels (HBV DNA [1]; D28): 1.24
- HBV DNA Levels (HBV DNA [1]; D35): 1.08
- HBV DNA Levels (HBV DNA [1]; D56): 1.17
- HBV DNA Levels (HBV DNA [1]; D84): 1.1
- HBV DNA Levels (HBV DNA [1]; D112): 2.24
- HBV DNA Levels (HBV DNA [1]; D140): 1.91
- HBV DNA Levels (HBV DNA [1]; D168): 1.79
- HBV DNA Levels (HBV DNA [1]; D196): 2.17
- HBV DNA Levels (HBV DNA [1]; D224): 2.48
- HBV DNA Levels (HBV DNA [1]; D252): 1.42

SMILES: Nc1ccn([C@@H]2CS[C@H](CO)O2)c(=O)n1 [Lamivudine]
- level of HBsAg (HBV HBsAg; D0): 1
- level of HBsAg (HBV HBsAg; D1): 0.7085
- level of HBsAg (HBV HBsAg; D2): 1.069
- level of HBsAg (HBV HBsAg; D3): 0.8838
- level of HBsAg (HBV HBsAg; D4): 0.8549
- level of HBsAg (HBV HBsAg; D5): 0.9837
- level of HBsAg (HBV HBsAg; D6): 1.128
- level of HBsAg (HBV HBsAg; D7): 1.284
- level of HBsAg (HBV HBsAg; D8): 1.324
- level of HBsAg (HBV HBsAg; D9): 0.7175
- level of HBV DNA (HBV DNA [2]; D0): 1
- level of HBV DNA (HBV DNA [2]; D1): 0.6797
- level of HBV DNA (HBV DNA [2]; D2): 0.358
- level of HBV DNA (HBV DNA [2]; D3): 0.357
- level of HBV DNA (HBV DNA [2]; D4): 0.1907
- level of HBV DNA (HBV DNA [2]; D5): 0.05735
- level of HBV DNA (HBV DNA [2]; D6): 0.02341
- level of HBV DNA (HBV DNA [2]; D7): 0.04001
- level of HBV DNA (HBV DNA [2]; D8): 0.02104
- level of HBV DNA (HBV DNA [2]; D9): 0.006153
- level of HBeAg (HBV HBeAg; D0): 1
- level of HBeAg (HBV HBeAg; D1): 1.323
- level of HBeAg (HBV HBeAg; D2): 0.716
- level of HBeAg (HBV HBeAg; D3): 0.9612
- level of HBeAg (HBV HBeAg; D4): 1.035
- level of HBeAg (HBV HBeAg; D5): 1.916
- level of HBeAg (HBV HBeAg; D6): 0.9979
- level of HBeAg (HBV HBeAg; D7): 1.148
- level of HBeAg (HBV HBeAg; D8): 0.9362
- level of HBeAg (HBV HBeAg; D9): 0.5632
- HBsAg Levels (HBsAg; D0): 1
- HBsAg Levels (HBsAg; D7): 1
- HBsAg Levels (HBsAg; D14): 0.98
- HBsAg Levels (HBsAg; D21): 1.01
- HBsAg Levels (HBsAg; D28): 0.96
- HBsAg Levels (HBsAg; D35): 1.23
- HBsAg Levels (HBsAg; D56): 0.84
- HBsAg Levels (HBsAg; D84): 0.88
- HBsAg Levels (HBsAg; D112): 0.5
- HBsAg Levels (HBsAg; D140): 0.98
- HBsAg Levels (HBsAg; D168): 1.1
- HBsAg Levels (HBsAg; D196): 0.82
- HBsAg Levels (HBsAg; D224): 0.76
- HBsAg Levels (HBsAg; D252): 0.46
- HBV DNA Levels (HBV DNA [1]; D0): 1
- HBV DNA Levels (HBV DNA [1]; D7): 1.3
- HBV DNA Levels (HBV DNA [1]; D14): 0.69
- HBV DNA Levels (HBV DNA [1]; D21): 0.49
- HBV DNA Levels (HBV DNA [1]; D28): 0.87
- HBV DNA Levels (HBV DNA [1]; D35): 0.72
- HBV DNA Levels (HBV DNA [1]; D56): 0.97
- HBV DNA Levels (HBV DNA [1]; D84): 0.43
- HBV DNA Levels (HBV DNA [1]; D112): 1.64
- HBV DNA Levels (HBV DNA [1]; D140): 0.92
- HBV DNA Levels (HBV DNA [1]; D168): 0.63
- HBV DNA Levels (HBV DNA [1]; D196): 0.18
- HBV DNA Levels (HBV DNA [1]; D224): 0.12
- HBV DNA Levels (HBV DNA [1]; D252): 0.23
